Data on 15 compounds can be found in patent US20250051344A1, “BIFUNCTIONAL SELECTIVE DEGRADERS OF SMARCA2 AND THERAPEUTIC USES THEREOF” (Nurix Therapeutics, Inc., priority 2023, published 2025).

One test addresses T1, SMARCA2 (Homo sapiens, UniProt P51531).
T1 construct: endogenous in cells
Nature of the test: SMARCA2 Cellular Degradation Assay (Western blot analysis on Jess platform). The conditions noted are these: for DC50 / Dmax: cellular degradation; for Fold Selectivity SMARCA4/2: ratio DC50 SMARCA4 / DC50 SMARCA2. It is filed as cell-based. An outline of the steps:
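SMARCA2 protein in lysates of cells isolated from tumors was measured by capillary immunoassay at 5 μg protein per capillary, using actin as loading reference; degradation was expressed as percent SMARCA2 left compared with vehicle-treated samples.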

The target of another test is T2, SMARCA4 (Homo sapiens, UniProt P51532).
T2 construct: endogenous in cells
T2 sequence (P51532 whole entry, species assumed): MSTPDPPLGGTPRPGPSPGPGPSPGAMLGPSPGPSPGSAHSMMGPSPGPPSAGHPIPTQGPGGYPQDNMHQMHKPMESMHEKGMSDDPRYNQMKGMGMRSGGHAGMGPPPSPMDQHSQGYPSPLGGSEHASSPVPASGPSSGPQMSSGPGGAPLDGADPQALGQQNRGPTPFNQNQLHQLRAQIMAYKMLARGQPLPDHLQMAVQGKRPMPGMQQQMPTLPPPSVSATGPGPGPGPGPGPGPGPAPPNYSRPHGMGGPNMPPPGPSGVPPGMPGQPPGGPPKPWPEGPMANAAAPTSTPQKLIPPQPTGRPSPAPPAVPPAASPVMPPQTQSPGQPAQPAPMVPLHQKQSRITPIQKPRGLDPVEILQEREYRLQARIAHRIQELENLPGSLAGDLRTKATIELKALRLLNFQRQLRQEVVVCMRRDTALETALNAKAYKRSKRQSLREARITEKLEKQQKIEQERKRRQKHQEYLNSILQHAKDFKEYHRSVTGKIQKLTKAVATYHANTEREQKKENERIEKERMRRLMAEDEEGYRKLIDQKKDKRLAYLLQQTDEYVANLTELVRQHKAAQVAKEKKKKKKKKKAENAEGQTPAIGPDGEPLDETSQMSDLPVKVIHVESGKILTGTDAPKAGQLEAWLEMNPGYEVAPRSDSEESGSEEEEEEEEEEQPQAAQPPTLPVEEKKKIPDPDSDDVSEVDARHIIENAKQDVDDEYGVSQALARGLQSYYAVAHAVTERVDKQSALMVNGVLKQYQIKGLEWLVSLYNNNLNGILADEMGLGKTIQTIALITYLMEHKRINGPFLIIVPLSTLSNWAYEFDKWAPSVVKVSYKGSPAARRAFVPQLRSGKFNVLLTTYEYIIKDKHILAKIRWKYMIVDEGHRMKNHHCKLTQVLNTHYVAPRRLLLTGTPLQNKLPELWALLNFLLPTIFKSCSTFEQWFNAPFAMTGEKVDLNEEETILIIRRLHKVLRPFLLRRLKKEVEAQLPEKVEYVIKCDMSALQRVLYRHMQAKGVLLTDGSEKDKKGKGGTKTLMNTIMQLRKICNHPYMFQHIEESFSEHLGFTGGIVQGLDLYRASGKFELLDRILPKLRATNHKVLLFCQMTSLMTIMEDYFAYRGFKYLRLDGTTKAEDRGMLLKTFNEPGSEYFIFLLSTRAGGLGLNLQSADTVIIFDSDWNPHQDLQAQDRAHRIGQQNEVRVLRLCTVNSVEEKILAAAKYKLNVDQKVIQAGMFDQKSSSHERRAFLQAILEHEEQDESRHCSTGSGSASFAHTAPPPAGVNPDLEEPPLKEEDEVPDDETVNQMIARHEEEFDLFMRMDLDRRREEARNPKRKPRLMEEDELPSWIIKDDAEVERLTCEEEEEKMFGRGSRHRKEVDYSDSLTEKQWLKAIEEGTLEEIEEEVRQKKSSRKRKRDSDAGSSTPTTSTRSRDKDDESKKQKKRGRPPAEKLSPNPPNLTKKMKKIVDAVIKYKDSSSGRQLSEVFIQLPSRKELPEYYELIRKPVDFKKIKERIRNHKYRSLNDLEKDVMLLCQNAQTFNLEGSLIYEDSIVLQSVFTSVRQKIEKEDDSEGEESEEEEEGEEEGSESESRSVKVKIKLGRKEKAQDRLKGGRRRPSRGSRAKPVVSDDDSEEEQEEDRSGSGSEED
Nature of the test: Cellular degradation assay, SMARCA4 (Table 1). Format: cell-based.

What is called DC50 is the midpoint of the concentration-degradation curve. For orientation: Dmax means the largest share of the target that was removed. The low end stands for shallow degradation, the high end for deep degradation.

T1 sequence (P51531 whole entry, species assumed): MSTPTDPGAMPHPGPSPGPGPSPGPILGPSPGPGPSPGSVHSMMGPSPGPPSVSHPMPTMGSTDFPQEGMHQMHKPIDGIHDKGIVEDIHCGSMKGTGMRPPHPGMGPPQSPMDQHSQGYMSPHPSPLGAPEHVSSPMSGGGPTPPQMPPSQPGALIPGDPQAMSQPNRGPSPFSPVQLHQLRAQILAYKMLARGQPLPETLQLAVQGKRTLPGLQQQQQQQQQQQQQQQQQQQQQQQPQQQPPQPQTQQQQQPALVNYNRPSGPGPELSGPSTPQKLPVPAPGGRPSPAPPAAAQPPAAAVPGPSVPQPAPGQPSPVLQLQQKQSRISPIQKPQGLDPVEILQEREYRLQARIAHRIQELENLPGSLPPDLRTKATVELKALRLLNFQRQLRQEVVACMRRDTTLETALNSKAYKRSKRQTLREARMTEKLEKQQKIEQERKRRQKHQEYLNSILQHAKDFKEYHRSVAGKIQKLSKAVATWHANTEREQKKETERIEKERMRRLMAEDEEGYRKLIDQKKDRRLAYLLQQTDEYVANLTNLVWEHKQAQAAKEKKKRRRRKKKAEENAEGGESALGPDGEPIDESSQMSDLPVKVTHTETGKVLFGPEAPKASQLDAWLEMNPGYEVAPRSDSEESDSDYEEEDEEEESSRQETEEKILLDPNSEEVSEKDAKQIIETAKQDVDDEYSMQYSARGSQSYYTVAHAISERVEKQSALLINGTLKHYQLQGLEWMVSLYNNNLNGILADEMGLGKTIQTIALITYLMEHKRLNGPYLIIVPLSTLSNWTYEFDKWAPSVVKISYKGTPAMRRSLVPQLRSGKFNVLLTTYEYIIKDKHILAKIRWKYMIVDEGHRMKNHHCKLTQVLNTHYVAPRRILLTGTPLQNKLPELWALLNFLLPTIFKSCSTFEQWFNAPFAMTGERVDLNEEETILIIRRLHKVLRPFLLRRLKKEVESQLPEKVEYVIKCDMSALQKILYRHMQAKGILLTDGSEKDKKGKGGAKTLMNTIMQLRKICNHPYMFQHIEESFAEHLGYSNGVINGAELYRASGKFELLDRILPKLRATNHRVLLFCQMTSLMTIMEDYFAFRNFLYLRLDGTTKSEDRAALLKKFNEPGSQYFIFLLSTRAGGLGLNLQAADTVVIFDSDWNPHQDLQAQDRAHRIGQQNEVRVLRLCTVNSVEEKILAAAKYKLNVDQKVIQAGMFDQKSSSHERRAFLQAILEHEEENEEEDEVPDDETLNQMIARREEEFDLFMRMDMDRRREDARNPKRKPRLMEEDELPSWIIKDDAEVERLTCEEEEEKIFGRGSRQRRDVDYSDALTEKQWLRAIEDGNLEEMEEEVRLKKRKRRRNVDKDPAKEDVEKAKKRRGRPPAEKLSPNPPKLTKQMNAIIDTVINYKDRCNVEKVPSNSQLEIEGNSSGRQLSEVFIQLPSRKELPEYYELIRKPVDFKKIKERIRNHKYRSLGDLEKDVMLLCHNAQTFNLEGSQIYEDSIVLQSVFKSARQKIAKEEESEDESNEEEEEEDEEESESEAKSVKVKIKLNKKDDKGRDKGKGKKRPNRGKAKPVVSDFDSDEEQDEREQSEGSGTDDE

As for `O=C1CC[C@H](c2ccc(N3CCC(CN4CCC(NC(=O)C5(C6CCOCC6)CCN(c6cnnc(-c7ccccc7O)c6)CC5)CC45CCC5)CC3)cc2)C(=O)N1` (stereo partly drawn) [Example 161, N-{5-[(1-{4-[(3R)-2,6-dioxopiperidin-3-yl]phenyl}piperidin-4-yl)methyl]-5-azaspiro[3.5]nonan-8-yl}-1-[6-(2-hydroxyphenyl)pyridazin-4-yl]-4-(oxan-4-yl)piperidine-4-carboxamide], on SMARCA2, half-maximal degradation (DC50) was put at 31.9 nM, the Dmax was found to be 70.8% and the “Fold Selectivity SMARCA4/2” value is on record as 313. For the same compound, the Dmax at SMARCA4 stood at 32.4%.

In the case of `COCCN(CC1(c2ccccc2)CCN(c2cnnc(-c3ccccc3O)c2)CC1)C(=O)C1CCN(CCC2CCN(c3ccc([C@@H]4CCC(=O)NC4=O)cc3)CC2)CC1` (racemic) [Example 145, rac-(r)-1-(2-(1-(4-(2,6-dioxopiperidin-3-yl)phenyl)piperidin-4-yl)ethyl)-n-((1-(6-(2-hydroxyphenyl)pyridazin-4-yl)-4-phenylpiperidin-4-yl)methyl)-n-(2-methoxyethyl)piperidine-4-carboxamide], on SMARCA2, the half-maximal degradation concentration (DC50) was determined as 1.69 nM, the Dmax came to 92.8% and the “Fold Selectivity SMARCA4/2” value was 6. On SMARCA4, this compound gave a DC50 of 9.67 nM and a Dmax of 84.5%.

In the case of `O=C1CCC(c2ccc(N3CCC4(CCN(CC5CCN(C(=O)C6(c7ccccc7)CCN(c7cnnc(-c8ccccc8O)c7)CC6)CC5)C4)CC3)cc2)C(=O)N1` (racemic) [Example 163, rac-(3R)-3-(4-{2-[(1-{1-[6-(2-hydroxyphenyl)pyridazin-4-yl]-4-phenylpiperidine-4-carbonyl}piperidin-4-yl)methyl]-2,8-diazaspiro[4.5]decan-8-yl}phenyl)piperidine-2,6-dione], at SMARCA2, half-maximal degradation (DC50) was put at 40.8 nM, the greatest degradation seen (Dmax) was found to be 62% and the “Fold Selectivity SMARCA4/2” value is listed as 245. The compound further came in with a Dmax at SMARCA4 of 49.3%.

In the case of `CN(C(=O)C1(c2ccccc2)CCN(c2cnnc(-c3ccccc3O)c2)CC1)C1CCN(CCC2CCN(c3cccc4c3n(C)c(=O)n4C3CCC(=O)NC3=O)CC2)CC1` (racemic) [Example 130, rac-N-{1-[2-(1-{1-[(3r)-2,6-dioxopiperidin-3-yl]-3-methyl-2-oxo-2,3-dihydro-1H-1,3-benzodiazol-4-yl}piperidin-4-yl)ethyl]piperidin-4-yl}-1-[6-(2-hydroxyphenyl)pyridazin-4-yl]-N-methyl-4-phenylpiperidine-4-carboxamide], at SMARCA2, the DC50 was 0.31 nM, the Dmax came out at 96.4% and the “Fold Selectivity SMARCA4/2” value is 28. Besides, on SMARCA4, the DC50 was 8.72 nM and the Dmax amounted to 84.4%.

Regarding `O=C1CCC(NC(=O)c2cc(N3CCN(C(=O)C4(c5ccccc5)CCN(c5cnnc(-c6ccccc6O)c5)CC4)CC3)ccn2)C(=O)N1` (racemic) [Example 1, rac-N-[(3r)-2,6-dioxopiperidin-3-yl]-4-(4-{1-[6-(2-hydroxyphenyl)pyridazin-4-yl]-4-phenylpiperidine-4-carbonyl}piperazin-1-yl)pyridine-2-carboxamide], the greatest degradation seen (Dmax) on SMARCA2 is 35.2%; on SMARCA4, 13%. In addition, the “Fold Selectivity SMARCA4/2” value on SMARCA2 is listed as 1.

With `COc1ccccc1C1(C(=O)N(C)C2CCN(CC3CCN(c4ccc([C@H]5CCC(=O)NC5=O)cc4)CC3)CC2)CCN(c2cnnc(-c3ccccc3O)c2)CC1` [Example 133, N-{1-[(1-{4-[(3R)-2,6-dioxopiperidin-3-yl]phenyl}piperidin-4-yl)methyl]piperidin-4-yl}-1-[6-(2-hydroxyphenyl)pyridazin-4-yl]-4-(2-methoxyphenyl)-n-methylpiperidine-4-carboxamide], at SMARCA2, the DC50 worked out at 2.5 nM, the maximal degradation (Dmax) stood at 90.5% and the “Fold Selectivity SMARCA4/2” value was 8. Further, on SMARCA4, the DC50 is 20.5 nM and the Dmax was 74.8%.

Consider `Cc1cc(C2(C(=O)N(C)C3CCN(CC4CCN(c5ccc(C6CCC(=O)NC6=O)cc5)CC4)CC3)CCN(c3cnnc(-c4ccccc4O)c3)CC2)on1` (racemic) [Example 90, rac-N-{1-[(1-{4-[(3R)-2,6-dioxopiperidin-3-yl]phenyl}piperidin-4-yl)methyl]piperidin-4-yl}-1-[6-(2-hydroxyphenyl)pyridazin-4-yl]-N-methyl-4-(3-methyl-1,2-oxazol-5-yl)piperidine-4-carboxamide], for which, at SMARCA2, the DC50 was determined as 8.55 nM, the maximal degradation (Dmax) was 76.5% and the “Fold Selectivity SMARCA4/2” value amounted to 1170. At SMARCA4, this compound had a Dmax of 34.8%.

Take `Cc1cccc(C2(C(=O)N3CC4(CN(CC5CCN(c6ccc(C7CCC(=O)NC7=O)cc6)CC5)C4)C3)CCN(c3cnnc(-c4ccccc4O)c3)CC2)c1` (racemic) [Example 43, rac-(3R)-3-(4-{4-[(6-{1-[6-(2-hydroxyphenyl)pyridazin-4-yl]-4-(3-methylphenyl)piperidine-4-carbonyl}-2,6-diazaspiro[3.3]heptan-2-yl)methyl]piperidin-1-yl}phenyl)piperidine-2,6-dione]: at SMARCA2, the DC50 stood at 11.9 nM, the Dmax was 78.5% and the “Fold Selectivity SMARCA4/2” value was 6.99. On SMARCA4, this compound came in with a DC50 of 83.4 nM and a Dmax of 59.3%.

On to `CN(C(=O)C1(OC2CC2)CCN(c2cnnc(-c3ccccc3O)c2)CC1)C1CCN(C(=O)CN2CCC(c3ccc([C@@H]4CCC(=O)NC4=O)cc3)CC2)CC1` (racemic) [Example 115, rac-4-cyclopropoxy-n-(1-(2-(4-(4-(2,6-dioxopiperidin-3-yl)phenyl)piperidin-1-yl)acetyl)piperidin-4-yl)-1-(6-(2-hydroxyphenyl)pyridazin-4-yl)-n-methylpiperidine-4-carboxamide], for which, at SMARCA2, it took 10.7 nM to reach half-maximal degradation (DC50), the maximal degradation (Dmax) turned out to be 77.6% and the “Fold Selectivity SMARCA4/2” value came to 937. Also, at SMARCA4, the Dmax was 45.2%.

Regarding `O=C1CC[C@@H](c2ccc(OCC3CCN(CC4CCN(C(=O)C5(c6ccccc6)CCN(c6cnnc(-c7ccccc7O)c6)CC5)CC4)CC3)cc2)C(=O)N1` [Example 35, (3S)-3-[4-({1-[(1-{1-[6-(2-hydroxyphenyl)pyridazin-4-yl]-4-phenylpiperidine-4-carbonyl}piperidin-4-yl)methyl]piperidin-4-yl}methoxy)phenyl]piperidine-2,6-dione], on SMARCA2, half-maximal degradation (DC50) was put at 80.5 nM, the Dmax was 57% and the “Fold Selectivity SMARCA4/2” value is given as 124.30. Moreover, at SMARCA4, the maximal degradation (Dmax) amounted to 22.6%.

Turning to `O=C1CC[C@H](c2ccc(N3CCC(CCN4CC5CCC(C4)C5C(=O)NCC4(c5ccccc5)CCN(c5cnnc(-c6ccccc6O)c5)CC4)CC3)cc2)C(=O)N1` (mixture of isomers) [Example 144, rac-3-(2-(1-(4-((r)-2,6-dioxopiperidin-3-yl)phenyl)piperidin-4-yl)ethyl)-n-((1-(6-(2-hydroxyphenyl)pyridazin-4-yl)-4-phenylpiperidin-4-yl)methyl)-3-azabicyclo[3.2.1]octane-8-carboxamide], at SMARCA2, the DC50 worked out at 1.36 nM, the Dmax was found to be 93.7% and the “Fold Selectivity SMARCA4/2” value is 10. Further, on SMARCA4, the DC50 is 13.4 nM and the Dmax is 80.7%.

As for `O=C1CCC(c2c(F)cc(N3CCC(CN4CCC5(CC4)CN(C(=O)C4(c6ccccc6)CCN(c6cnnc(-c7ccccc7O)c6)CC4)C5)CC3)cc2F)C(=O)N1` (racemic) [Example 193, rac-(3R)-3-(2,6-difluoro-4-{4-[(2-{1-[6-(2-hydroxyphenyl)pyridazin-4-yl]-4-phenylpiperidine-4-carbonyl}-2,7-diazaspiro[3.5]nonan-7-yl)methyl]piperidin-1-yl}phenyl)piperidine-2,6-dione], on SMARCA2, half-maximal degradation (DC50) was put at 1.24 nM, the Dmax was found to be 94.9% and the “Fold Selectivity SMARCA4/2” value came to 11. Further, on SMARCA4, the DC50 came to 13.2 nM and the maximal degradation (Dmax) was determined as 84.2%.

Consider `O=C1CCC(c2ccc(N3C[C@H]4CN(CC(=O)N5CCC6(CC5)CN(C(=O)C5(c7ccccc7)CCN(c7cnnc(-c8ccccc8O)c7)CC5)C6)C[C@@H]4C3)cc2)C(=O)N1` (mixture of isomers) [Example 150, (3RS)-3-{4-[(3aR,6aR)-5-[2-(2-{1-[6-(2-hydroxyphenyl)pyridazin-4-yl]-4-phenylpiperidine-4-carbonyl}-2,7-diazaspiro[3.5]nonan-7-yl)-2-oxoethyl]-octahydropyrrolo[3,4-c]pyrrol-2-yl]phenyl}piperidine-2,6-dione], for which, at SMARCA2, it took 22.6 nM to reach half-maximal degradation (DC50), the Dmax came out at 73.9% and the “Fold Selectivity SMARCA4/2” value stood at 442. At SMARCA4, the maximal degradation (Dmax) came out at 50.6%.

As for `O=C1CC[C@H](c2ccc(N3CCC(CCN4CCC(N(C(=O)C5(c6ccccc6)CCN(c6cnnc(-c7ccccc7O)c6)CC5)C5CC5)CC4)CC3)cc2)C(=O)N1` [Example 74, N-cyclopropyl-N-{1-[2-(1-{4-[(3r)-2,6-dioxopiperidin-3-yl]phenyl}piperidin-4-yl)ethyl]piperidin-4-yl}-1-[6-(2-hydroxyphenyl)pyridazin-4-yl]-4-phenylpiperidine-4-carboxamide], at SMARCA2, the 50% degradation concentration (DC50) was 1.88 nM, the Dmax was 94.2% and the “Fold Selectivity SMARCA4/2” value is 32. Further, on SMARCA4, the DC50 came to 59.3 nM and the greatest degradation seen (Dmax) was 69.2%.

In the case of `Cc1ccccc1C1(C(=O)N2CC3(CN(CC4CCN(c5ccc(C6CCC(=O)NC6=O)cc5)CC4)C3)C2)CCN(c2cnnc(-c3ccccc3O)c2)CC1` (racemic) [Example 33, rac-(3R)-3-(4-{4-[(6-{1-[6-(2-hydroxyphenyl)pyridazin-4-yl]-4-(2-methylphenyl)piperidine-4-carbonyl}-2,6-diazaspiro[3.3]heptan-2-yl)methyl]piperidin-1-yl}phenyl)piperidine-2,6-dione], on SMARCA2, half-maximal degradation (DC50) was put at 11.7 nM, the Dmax stood at 78.9% and the “Fold Selectivity SMARCA4/2” value was 6.16. At SMARCA4, this compound returned a DC50 of 71.9 nM and a Dmax of 56%.
